Laboratory results from ChEMBL document CHEMBL5365466, “Discovery of Triazolyl Derivatives of Cucurbitacin B Targeting IGF2BP1 against Non-Small Cell Lung Cancer” (J Med Chem, 2023).
Activity calls are given as the source filed them. The calls are words filed in the database; no cut-off is given here.

Experiments:
A549 [1] = assay: Induction of apoptosis in human A549 cells assessed as downregulation of CDK4 expression incubated for 48 hrs by Western blotting analysis; assay type: functional, cell-based
A549 [2] = assay: Antitumor activity against human A549 cells xenografted in BALB/c mouse assessed as increase in nuclear pyknosis at 0.5 mg/kg,ip administrated for 21 days by hematoxylin and eosin staining based microscopic analysis; assay type: functional, organism-based; settings: time 21.0 day
[3] = Antiproliferative activity against human L02 cells assessed as cell growth inhibition at 1 uM incubated for 72 hrs by SRB assay; assay type: toxicity, cell-based
A549 [4] = assay: Induction of cell cycle arrest in human A549 cells assessed as accumulation of cells at G1 phase at 0.5 uM incubated for 24 hrs by PI staining based flow cytometric analysis (reference value: 65.6 %); assay type: functional
HCT-116 [5] = assay: Antiproliferative activity against human HCT-116 cells assessed as cell growth inhibition incubated for 72 hrs by SRB assay; assay type: functional, cell-based; settings: HCT-116, 72 h
HCT-116 [6] = assay: Antiproliferative activity against human HCT-116 cells assessed as cell growth inhibition at 0.1 uM incubated for 72 hrs by SRB assay; assay type: functional
A549 [7] = assay: Antitumor activity against human A549 cells xenografted in BALB/c mouse assessed as decrease in tumor volume at 0.5 mg/kg,ip administrated for 21 days; assay type: functional, organism-based; settings: time 21.0 day
[8] = target: T1, Insulin-like growth factor 2 mRNA-binding protein 1 (Homo sapiens, UniProt Q9NZI8); assay: Binding affinity to IGF2BP1 in human A549 cells assessed as protein stabilization at 1 uM at 49 degreeC incubated for 2 hrs by CETSA; assay type: cell-based
A549 [9] = assay: Induction of cell cycle arrest in human A549 cells assessed as accumulation of cells at G2 phase at 0.1 uM incubated for 24 hrs by PI staining based flow cytometric analysis (reference value: 9.26 %); assay type: functional
HCT-116 [10] = assay: Antiproliferative activity against human HCT-116 cells assessed as cell growth inhibition at 1 uM incubated for 72 hrs by SRB assay; assay type: functional
A549 [11] = assay: Induction of cell cycle arrest in human A549 cells assessed as accumulation of cells at G2 phase at 0.5 uM incubated for 24 hrs by PI staining based flow cytometric analysis (reference value: 9.26 %); assay type: functional
A549 [12] = assay: Induction of cell cycle arrest in human A549 cells assessed as accumulation of cells at G1 phase at 0.1 uM incubated for 24 hrs by PI staining based flow cytometric analysis (reference value: 65.6 %); assay type: functional
[13] = target: T1, Insulin-like growth factor 2 mRNA-binding protein 1; assay: Binding affinity to IGF2BP1 in human A549 cells assessed as protein stabilization at 1 uM at 52 degreeC incubated for 2 hrs by CETSA; assay type: cell-based
[14] = Selectivity index, ratio of IC50 for antiproliferative activity against human L02 cells to IC50 for antiproliferative activity against human HepG2 cells; assay type: toxicity, cell-based; settings: L02 cells versus HepG2 cells, read-out: Ratio IC50
A549 [15] = assay: Antitumor activity against human A549 cells xenografted in BALB/c mouse assessed as decrease in tumor weight at 0.5 mg/kg,ip administrated for 21 days; assay type: functional, organism-based; settings: time 21.0 day
A549 [16] = assay: Induction of cell cycle arrest in human A549 cells assessed as accumulation of cells at G2 phase at 0.2 uM incubated for 24 hrs by PI staining based flow cytometric analysis (reference value: 9.26 %); assay type: functional
[17] = Selectivity index, ratio of IC50 for antiproliferative activity against human L02 cells to IC50 for antiproliferative activity against human CFPAC-1 cells
[18] = Selectivity index, ratio of IC50 for antiproliferative activity against human L02 cells to IC50 for antiproliferative activity against human A549 cells; assay type: toxicity, cell-based; settings: L02 cells versus A549 cells, read-out: Ratio IC50
A549 [19] = assay: Antiproliferative activity against wild type human A549 cells assessed as cell growth inhibition incubated for 72 hrs by SRB assay; assay type: functional, cell-based; settings: A549, 72 h
A549 [20] = assay: Induction of apoptosis in human A549 cells assessed as downregulation of BCL-2 expression incubated for 48 hrs by Western blotting analysis; assay type: functional, cell-based
A549 [21] = assay: Induction of apoptosis in human A549 cells assessed as downregulation of c-Myc expression incubated for 48 hrs by Western blotting analysis; assay type: functional, cell-based
[22] = Selectivity index, ratio of IC50 for antiproliferative activity against human L02 cells to IC50 for antiproliferative activity against human MCF7 cells; assay type: toxicity, cell-based; settings: L02 cells versus MCF7 cells, read-out: Ratio IC50
BXPC-3 = assay: Antiproliferative activity against human BXPC-3 cells assessed as cell growth inhibition incubated for 72 hrs by SRB assay; assay type: functional, cell-based; settings: BXPC-3, 72 h
[23] = target: T1, Insulin-like growth factor 2 mRNA-binding protein 1; assay: Binding affinity to IGF2BP1 in human A549 cells assessed as protein stabilization at 1 uM at 46 degreeC incubated for 2 hrs by CETSA; assay type: cell-based
[24] = target: T1, Insulin-like growth factor 2 mRNA-binding protein 1; assay: Binding affinity to IGF2BP1 in human A549 cells assessed as protein stabilization at 1 uM at 55 degreeC incubated for 2 hrs by CETSA; assay type: cell-based
A549 [25] = assay: Induction of cell cycle arrest in human A549 cells assessed as accumulation of cells at S phase at 0.1 uM incubated for 24 hrs by PI staining based flow cytometric analysis (reference value: 23 %); assay type: functional
[26] = target: T1, Insulin-like growth factor 2 mRNA-binding protein 1; assay: Binding affinity to His-tagged recombinant IGF2BP1 (unknown origin) assessed as dissociation constant by surface plasmon resonance assay
HepG2 = assay: Antiproliferative activity against human HepG2 cells assessed as cell growth inhibition incubated for 72 hrs by SRB assay; assay type: functional, cell-based; settings: HepG2, 72 h
A549 [27] = assay: Induction of cell cycle arrest in human A549 cells assessed as accumulation of cells at G1 phase at 0.2 uM incubated for 24 hrs by PI staining based flow cytometric analysis (reference value: 65.6 %); assay type: functional
A549 [28] = assay: Antitumor activity against human A549 cells xenografted in BALB/c mouse assessed as vacuole formation at 0.5 mg/kg,ip administrated for 21 days by hematoxylin and eosin staining based microscopic analysis; assay type: functional, organism-based; settings: time 21.0 day
CFPAC-1 = assay: Antiproliferative activity against human CFPAC-1 cells assessed as cell growth inhibition incubated for 72 hrs by SRB assay; assay type: functional, cell-based; settings: CFPAC-1, 72 h
[29] = Selectivity index, ratio of IC50 for antiproliferative activity against human L02 cells to IC50 for antiproliferative activity against human SK-OV-3 cells
A549 [30] = assay: Induction of autophagy in human A549 cells assessed as upregulation of p62 protein expression at 0.1 to 0.5 uM incubated for 48 hrs by Western blotting analysis; assay type: functional, cell-based; settings: dose 0.1-0.5 µM
[31] = Selectivity index, ratio of IC50 for antiproliferative activity against human L02 cells to IC50 for antiproliferative activity against human BXPC-3 cells; assay type: toxicity, cell-based; settings: L02 cells versus BXPC-3 cells, read-out: Ratio IC50
A549 [32] = assay: Induction of apoptosis in human A549 cells assessed as increase in PARP cleavage incubated for 48 hrs by Western blotting analysis; assay type: functional, cell-based
PANC-1 = assay: Antiproliferative activity against human PANC-1 cells assessed as cell growth inhibition incubated for 72 hrs by SRB assay; assay type: functional, cell-based; settings: PANC-1, 72 h
[33] = Acute toxicity in C57BL/6J mouse assessed as death at 0.75 mg/kg,ip measured after 14 days; assay type: organism-based; settings: in vivo, 336 h, time 14 day
[34] = Acute toxicity in C57BL/6J mouse assessed as change in body weight at 0.75 mg/kg,ip measured after 14 days; assay type: organism-based; settings: in vivo, 336 h, time 14 day

T1 sequence (Q9NZI8 whole entry): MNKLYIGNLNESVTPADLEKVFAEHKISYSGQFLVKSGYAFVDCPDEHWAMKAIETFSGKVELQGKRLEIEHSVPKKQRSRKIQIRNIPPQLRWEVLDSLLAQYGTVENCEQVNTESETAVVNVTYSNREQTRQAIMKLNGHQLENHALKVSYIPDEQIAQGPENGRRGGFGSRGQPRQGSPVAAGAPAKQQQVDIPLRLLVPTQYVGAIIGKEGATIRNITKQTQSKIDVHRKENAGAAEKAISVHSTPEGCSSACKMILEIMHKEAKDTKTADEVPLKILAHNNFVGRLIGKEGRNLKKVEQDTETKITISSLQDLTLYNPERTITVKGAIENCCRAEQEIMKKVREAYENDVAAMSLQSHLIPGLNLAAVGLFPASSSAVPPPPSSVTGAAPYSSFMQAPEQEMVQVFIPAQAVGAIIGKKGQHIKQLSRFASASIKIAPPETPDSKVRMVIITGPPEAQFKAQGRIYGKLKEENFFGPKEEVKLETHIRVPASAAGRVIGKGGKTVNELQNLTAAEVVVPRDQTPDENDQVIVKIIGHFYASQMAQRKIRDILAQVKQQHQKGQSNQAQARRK

For `CC(=O)OC(C)(C)/C=C/C(=O)[C@](C)(O)[C@H]1[C@H](O)C[C@@]2(C)[C@@H]3CC=C4[C@@H](C[C@H](OC(=O)Cn5ncn(-c6ccc(F)cc6)c5=O)C(=O)C4(C)C)[C@]3(C)C(=O)C[C@]12C`, the Activity (A549 [1]) was “Dose-Dependent Effect”, the Activity (A549 [2]) was “Active” and the inhibition at 72 h, 1 µM [3] was 68.9%. The Activity (A549 [4]) was 51.3%, the IC50 (HCT-116 [5]) was 34 nM and the inhibition at 0.1 µM (HCT-116 [6]) was 73.1%. For the same molecule, the Activity (A549 [7]) was “Active”, the Activity [8] was “Active” and the Activity (A549 [9]) was 10.5%. The inhibition at 1 µM (HCT-116 [10]) was 84.1%, the Activity (A549 [11]) was 37.3% and the Activity (A549 [12]) was 57.7%. For the same molecule, the Activity [13] was “Active”, the selectivity ratio [14] was 1.25 and the Activity (A549 [15]) was “Active”. The Activity (A549 [16]) was 16.4%, the “Ratio IC50” value [17] was 2.7 and the selectivity ratio [18] was 11.1. For the same molecule, the IC50 (A549 [19]) was 5 nM, the Activity (A549 [20]) was “Dose-Dependent Effect” and the Activity (A549 [21]) was “Dose-Dependent Effect”. For the same molecule, the selectivity ratio [22] was 1.79, the IC50 (BXPC-3) was 18 nM and the Activity [23] was “Active”. For the same molecule, the Activity [24] was “Active”, the Activity (A549 [25]) was 31.1% and the Kd [26] was 2.88 nM. For the same molecule, the IC50 (HepG2) was 80 nM, the Activity (A549 [27]) was 63.6% and the Activity (A549 [28]) was “Active”. For the same molecule, the IC50 (CFPAC-1) was 37 nM, the “Ratio IC50” value [29] was 1.85 and the Activity (A549 [30]) was “Dose-Dependent Effect”. For the same molecule, the selectivity ratio [31] was 5.56, the Activity (A549 [32]) was “Dose-Dependent Effect” and the IC50 (PANC-1) was 88 nM. The Activity [33] was “Non-Toxic” and the Activity [34] was “Toxic”.
